Test results published in ChEMBL document CHEMBL4265987, “Identification of inhibitors of the E. coli chaperone SurA using in silico and in vitro techniques” (Bioorg Med Chem Lett, 2018).
pIC50: −log10 of the molar value. Active and inactive are the calls of the source. The calls are words filed in the database; no cut-off is given here. Peptide text beside a SMILES is read from it.

Legend:
[1] = molecular target: T1, Chaperone SurA (Escherichia coli (strain K12)) (UniProt P0ABZ6); details: up to 3 µM
T1 sequence (whole entry): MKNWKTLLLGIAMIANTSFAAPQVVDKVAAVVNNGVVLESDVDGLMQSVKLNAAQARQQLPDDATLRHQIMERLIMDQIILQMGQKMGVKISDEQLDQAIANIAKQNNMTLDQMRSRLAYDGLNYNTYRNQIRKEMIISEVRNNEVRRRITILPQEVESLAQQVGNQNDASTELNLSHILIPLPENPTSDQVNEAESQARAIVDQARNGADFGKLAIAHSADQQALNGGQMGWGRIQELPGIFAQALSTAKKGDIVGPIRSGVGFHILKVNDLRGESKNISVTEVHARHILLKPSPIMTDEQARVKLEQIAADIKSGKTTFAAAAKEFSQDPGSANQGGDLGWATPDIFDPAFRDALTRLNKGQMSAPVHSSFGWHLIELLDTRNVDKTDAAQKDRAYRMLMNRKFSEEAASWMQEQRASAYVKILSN
Description: Inhibition of rhodamine-WEYIPNV binding to Escherichia coli SurA up to 3 uM by fluorescence anisotropy

Chaperone SurA [2] = molecular target: T2, Chaperone SurA (Escherichia coli (strain K12), UniProt P0ABZ6); test: Inhibition of rhodamine-WEYIPNV binding to Escherichia coli SurA by fluorescence anisotropy
T2 sequence (P0ABZ6 whole entry): T1 sequence (whole entry)

[3] = molecular target: T1, Chaperone SurA (Escherichia coli (strain K12)); test: Inhibition of rhodamine-WEYIPNV binding to Escherichia coli SurA up to 1.5 uM by fluorescence anisotropy
[4] = molecular target: T1, Chaperone SurA (Escherichia coli (strain K12)); test: Binding affinity to Escherichia coli SurA at 5 nM by fluorescence anisotropy
[5] = molecular target: T1, Chaperone SurA (Escherichia coli (strain K12)); test: Inhibition of rhodamine-WEYIPNV binding to Escherichia coli SurA up to 2.5 uM by fluorescence anisotropy
[6] = molecular target: T1, Chaperone SurA (Escherichia coli (strain K12)); test: Inhibition of rhodamine-WEYIPNV binding to Escherichia coli SurA up to 2 uM by fluorescence anisotropy
[7] = Binding affinity to Rhodamine-WEYIPNV up to 3 uM by fluorescence anisotropy
Chaperone SurA [8] = molecular target: T2, Chaperone SurA; test: Inhibition of rhodamine-WEYIPNV binding to Escherichia coli SurA in presence of 0.01% Triton-X-100 by fluorescence anisotropy

## N[C@@H](Cc1cnc[nH]1)C(=O)NCC(=O)NCC(=O)O (H-His-Gly-Gly-OH)
[1]
  inhibition: inactive

## CC[C@H](C)[C@H](NC(=O)[C@H](Cc1ccc(O)cc1)NC(=O)[C@H](CCC(=O)O)NC(=O)[C@@H](N)Cc1c[nH]c2ccccc12)C(=O)N1CCC[C@H]1C(=O)N[C@@H](CC(N)=O)C(=O)N[C@H](C(=O)O)C(C)C
Chaperone SurA [2]
  pIC50: 5.58

## c1cc(C2=N[C@H]3c4ccccc4C[C@H]3O2)nc(C2=N[C@H]3c4ccccc4C[C@H]3O2)c1
[3]
  inhibition: inactive

## O=C1OC2(c3ccc(O)cc3Oc3cc(O)ccc32)c2ccccc21
[4]
  Activity: Active

## C[C@H](NC(=O)OCC1c2ccccc2-c2ccccc21)C(=O)O
[5]
  inhibition: inactive

## O=C(O)CCNC(=O)OCC1c2ccccc2-c2ccccc21
[5]
  inhibition: inactive

## CN1/C(=C\C=C2/CCC(/C=C/C3=[N+](C)c4ccccc4C3(C)C)=C2Cl)C(C)(C)c2ccccc21
[6]
  inhibition: inactive

## O=C(N[C@H](Cc1ccc2ccccc2n1)C(=O)O)OCC1c2ccccc2-c2ccccc21
Chaperone SurA [2]
  pIC50: 4.24
[7]
  Activity: inactive
Chaperone SurA [8]
  pIC50: 4.43

## O=C(OCC1c2ccccc2-c2ccccc21)N1CCC[C@H]1C(=O)n1nnc2ccccc21
[6]
  inhibition: inactive

## O=C1OC2(c3ccc(O)cc3Oc3cc(O)ccc32)c2ccc(N3C(=O)C=CC3=O)cc21
[5]
  inhibition: inactive

## O=C(N[C@@H](Cc1ccc(O)cc1)C(=O)O)OCC1c2ccccc2-c2ccccc21
[5]
  inhibition: inactive

## O=C(N[C@@H](Cc1c[nH]c2ccccc12)C(=O)O)OCC1c2ccccc2-c2ccccc21
Chaperone SurA [2]
  pIC50: 4.63
[7]
  Activity: inactive

## O=C(N[C@@H](Cc1ccccc1)C(=O)O)OCC1c2ccccc2-c2ccccc21
Chaperone SurA [2]
  pIC50: 3.82
[7]
  Activity: inactive

## CC[C@H](C)[C@H](NC(=O)OCC1c2ccccc2-c2ccccc21)C(=O)O
[5]
  inhibition: inactive

## H-KQAGNV-OH
[1]
  inhibition: inactive
